Literature values in patent US11666634B2, “Methods and compositions for management of gastrointestinal disorders” (THE BOARD OF REGENTS OF THE UNIVERSITY OF TEXAS SYSTEM, priority 2019, dated 2023).

## CC[C@H](C)[C@H](NC(=O)[C@@H]1CCCN1C(=O)CNC(=O)[C@H](Cc1ccccc1)NC(=O)[C@H](CC(N)=O)NC(=O)[C@H](CC(N)=O)NC(=O)[C@H](CO)NC(=O)[C@H](CO)NC(=O)[C@H](Cc1c[nH]cn1)NC(=O)[C@@H](NC(=O)[C@H](CC(C)C)NC(=O)[C@H](Cc1ccccc1)NC(=O)[C@H](CC(N)=O)NC(=O)[C@H](C)NC(=O)[C@H](CC(C)C)NC(=O)[C@H](CCCNC(=N)N)NC(=O)[C@H](CCC(N)=O)NC(=O)[C@@H](NC(=O)[C@H](C)NC(=O)[C@@H]1CSSC[C@H](NC(=O)[C@@H](N)CCCCN)C(=O)N[C@@H](CC(N)=O)C(=O)N[C@@H]([C@@H](C)O)C(=O)N[C@@H](C)C(=O)N[C@@H]([C@@H](C)O)C(=O)N1)[C@@H](C)O)C(C)C)C(=O)N[C@@H](CC(C)C)C(=O)N1CCC[C@H]1C(=O)N1CCC[C@H]1C(=O)N[C@H](C(=O)N[C@@H](CC(N)=O)C(=O)N[C@H](C(=O)NCC(=O)N[C@@H](CO)C(=O)N[C@@H](CC(N)=O)C(=O)N[C@H](C(=O)N[C@@H](Cc1ccc(O)cc1)C(N)=O)[C@@H](C)O)C(C)C)[C@@H](C)O [Pramlintide, pramlintide]
Gastric emptying of a liquid, delayed from a half time of 30 minutes without pramlintide
  gastric emptying half time: 110 min
Result in words
  rate of gastric emptying: significantly decreased
